# According to patent US12240844B2 (Voronoi, Inc., priority 2019, dated 2025):
# Key:
# Type in all cases: biochemical
# [1] = target: T1, human GST-DYRK1A (full length) (Homo sapiens, UniProt Q13627); assay: GST-DYRK1A enzyme inhibition, ADP-Glo kinase assay; conditions: read-out: DYRK1 IC50
# T1 construct: purified human GST-DYRK1A (full length, Thermo scientifics) enzyme; GST; purchased Thermo scientifics
# Procedure, shortened: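 Full-length human GST-DYRK1A (10 ng) incubated with 10 uM ATP and specific substrate for 1 h at 25° C in 40 mM Tris-HCl pH 7.4, 20 mM MgCl2, 0.5 mg/mL BSA, 50 uM DTT. ADP formation read by ADP-Glo luminescence; IC50 (nM) versus solvent control, triplicate.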
# LRRK2 = LRRK2 (Homo sapiens, UniProt Q5S007); assay: LRRK2 enzyme inhibition, ADP-Glo kinase assay; parameters: purchased Invitrogen PR8604B
# Chain of LRRK2 (Q5S007 970-2527 limits assumed): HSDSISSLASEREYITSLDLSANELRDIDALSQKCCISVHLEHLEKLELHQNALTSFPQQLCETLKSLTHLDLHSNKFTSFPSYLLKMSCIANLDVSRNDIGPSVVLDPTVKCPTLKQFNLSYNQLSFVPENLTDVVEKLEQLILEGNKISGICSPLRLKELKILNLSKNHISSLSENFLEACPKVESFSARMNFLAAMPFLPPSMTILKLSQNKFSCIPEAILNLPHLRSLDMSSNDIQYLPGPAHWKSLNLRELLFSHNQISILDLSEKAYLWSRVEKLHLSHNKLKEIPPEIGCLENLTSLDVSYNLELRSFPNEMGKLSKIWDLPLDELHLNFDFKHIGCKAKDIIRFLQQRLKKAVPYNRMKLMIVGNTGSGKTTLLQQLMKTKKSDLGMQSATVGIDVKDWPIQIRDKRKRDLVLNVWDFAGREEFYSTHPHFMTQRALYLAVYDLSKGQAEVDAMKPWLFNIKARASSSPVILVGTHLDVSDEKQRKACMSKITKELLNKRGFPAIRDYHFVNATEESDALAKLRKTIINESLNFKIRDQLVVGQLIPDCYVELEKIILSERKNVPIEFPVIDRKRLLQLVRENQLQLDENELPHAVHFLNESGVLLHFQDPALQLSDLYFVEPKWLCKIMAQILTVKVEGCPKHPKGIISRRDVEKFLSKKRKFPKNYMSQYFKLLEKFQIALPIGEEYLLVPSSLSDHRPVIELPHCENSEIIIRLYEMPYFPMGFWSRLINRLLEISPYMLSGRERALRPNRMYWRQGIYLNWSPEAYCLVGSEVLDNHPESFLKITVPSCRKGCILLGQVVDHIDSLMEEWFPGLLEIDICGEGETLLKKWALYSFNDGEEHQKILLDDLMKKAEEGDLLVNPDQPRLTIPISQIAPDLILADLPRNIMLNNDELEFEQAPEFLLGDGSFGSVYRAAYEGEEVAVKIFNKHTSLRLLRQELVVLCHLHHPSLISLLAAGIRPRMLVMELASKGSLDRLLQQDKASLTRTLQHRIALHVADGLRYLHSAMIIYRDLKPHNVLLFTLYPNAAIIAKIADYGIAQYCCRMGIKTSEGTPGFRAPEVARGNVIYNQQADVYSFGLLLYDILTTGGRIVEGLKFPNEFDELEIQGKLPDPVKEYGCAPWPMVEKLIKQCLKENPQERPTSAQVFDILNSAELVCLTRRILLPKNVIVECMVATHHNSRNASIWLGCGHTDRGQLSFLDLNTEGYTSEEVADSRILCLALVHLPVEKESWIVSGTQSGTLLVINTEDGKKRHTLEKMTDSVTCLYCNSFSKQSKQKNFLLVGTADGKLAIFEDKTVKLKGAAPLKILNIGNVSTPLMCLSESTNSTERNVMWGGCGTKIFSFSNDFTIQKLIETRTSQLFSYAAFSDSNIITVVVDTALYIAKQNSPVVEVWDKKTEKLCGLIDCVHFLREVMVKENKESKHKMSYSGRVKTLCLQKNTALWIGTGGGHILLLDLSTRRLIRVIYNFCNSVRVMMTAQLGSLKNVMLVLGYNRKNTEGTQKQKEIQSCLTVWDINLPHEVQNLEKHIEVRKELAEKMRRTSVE
# Procedure, shortened: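 Purified human LRRK2 (25 ng) in 40 mM Tris-HCl pH7.4, 20 mM MgCl2, 0.5 mg/ml BSA, 50 μM DTT with 10 μM ATP and substrate ([…]), 2 h at 25° C. Final compound 50 to 0.000001024 μM, 12-point dilution. ADP-Glo luminescence vs solvent control; IC50 (nM).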
# TTK = target: T2, TTK (Homo sapiens, UniProt P33981); assay: TTK enzyme inhibition, ADP-Glo kinase assay; parameters: purchased Signalchem T20-10G; conditions: ATP 5 μM
# T2 sequence (P33981 1-857): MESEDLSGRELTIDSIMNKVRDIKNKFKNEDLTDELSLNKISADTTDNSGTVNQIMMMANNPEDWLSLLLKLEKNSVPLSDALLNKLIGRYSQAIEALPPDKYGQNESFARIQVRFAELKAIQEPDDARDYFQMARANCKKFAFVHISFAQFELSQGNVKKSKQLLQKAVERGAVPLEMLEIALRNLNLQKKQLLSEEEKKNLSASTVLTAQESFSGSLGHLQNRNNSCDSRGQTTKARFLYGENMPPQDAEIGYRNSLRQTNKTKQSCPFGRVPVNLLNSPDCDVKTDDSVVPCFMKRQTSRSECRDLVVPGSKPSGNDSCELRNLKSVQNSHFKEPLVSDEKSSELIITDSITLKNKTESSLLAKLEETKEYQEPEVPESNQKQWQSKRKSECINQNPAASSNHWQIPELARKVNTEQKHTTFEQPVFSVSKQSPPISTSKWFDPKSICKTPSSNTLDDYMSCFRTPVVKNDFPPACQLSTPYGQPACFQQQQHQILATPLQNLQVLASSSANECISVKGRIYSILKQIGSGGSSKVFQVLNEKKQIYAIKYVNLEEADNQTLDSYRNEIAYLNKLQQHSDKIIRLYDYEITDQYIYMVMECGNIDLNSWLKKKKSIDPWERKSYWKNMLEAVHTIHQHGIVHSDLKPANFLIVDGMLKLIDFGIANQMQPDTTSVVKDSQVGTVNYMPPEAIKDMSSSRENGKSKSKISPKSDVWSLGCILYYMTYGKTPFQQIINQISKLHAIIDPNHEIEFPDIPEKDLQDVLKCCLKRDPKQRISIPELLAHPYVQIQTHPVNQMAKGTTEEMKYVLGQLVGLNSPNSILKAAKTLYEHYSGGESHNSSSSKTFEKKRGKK
# Procedure: In order to evaluate the inhibitory activity of the compounds according to the present invention on LRRK2, LRRK2 (G2019S), DYRK1, CLK1 and TTK kinases, the following experiment was performed.
# Example compounds were reacted with the purified human TTK (Signalchem #T20-10G) enzyme to evaluate the enzyme inhibitory ability as follows. The reaction buffer was used as the composition of 40 mM Tris-HCl pH7.4, 20 mM MgCl2, 0.1 mg/ml BSA (5× kinase buffer, Signalchem #K03-09) and 50 μM DTT (Signalchem #D86-09B), and the reaction of all test materials was performed on the reaction buffer. The compound was diluted with 10 mM DMSO stock in […] by a serial dilution method, and the enzyme activity was measured at the final compound concentrations of 1, 0.333333, 0.111111, 0.037037, 0.012346, 0.004115, 0.001372, 0.000457, 0.000152, 0.000051 and 0.000017 μM. In the test, the human TTK (7.5 ng) enzyme was reacted with the purified ATP (5 μM, Promega #V6930) and an MBP enzyme substrate (0.2 μg, Signalchem M42-51N) at 25° C. for 4 hours, and then the enzyme activity was identified using the in vitro ADP-Glo™ kinase assay (Promega #V6930). The enzyme activity reaction liquid, an ADP-Glo reaction liquid and an enzyme potency detection solution were reacted in a ratio of 2:2:1, and the degree of inhibition of enzyme activity was measured by luminescence. The degree of inhibition of enzyme activity according to the treatment concentrations of the respective compounds was calculated based on the luminescence degree of the enzyme activity of a solvent control group that was not treated with the compound, where the concentration of each compound to inhibit enzyme activity inhibition by 50% was determined as an IC50 (nM) value and obtained using Prism (Version 8.2, GraphPad) software.
# In the table below, the following designations were used for the evaluation of enzyme inhibitory ability.
IC50 [1],IC50 (LRRK2),IC50 (TTK),Structure (SMILES)
< 0.1 µM,< 0.1 µM,,"CCNc1cc(Nc2ccc(C(=O)N3CCC(N4CCOCC4)CC3)c3c2OCO3)nc2[nH]cc(C(F)(F)F)c12 [Example 37, (7-((4-(ethylamino)-3-(trifluoromethyl)-1H-pyrrolo[2,3-b]pyridin-6-yl)amino)benzo[d][1,3]dioxol-4-yl)(4-morpholinopiperidin-1-yl)methanone]"
,0.301 to 1 µM,0.301 to 1 µM,"COc1cc(P2(=O)CCN(C(C)=O)CC2)ccc1Nc1cc(C2CC2)c2c(C(F)(F)F)c[nH]c2n1 [Example 48, 1-(4-(4-((4-cyclopropyl-3-(trifluoromethyl)-1H-pyrrolo[2,3-b]pyridin-6-yl)amino)-3-methoxyphenyl)-4-oxido-1,4-azaphosphinan-1-yl)ethan-1-one]"
,< 0.1 µM,< 0.1 µM,"O=C(c1ccc(Nc2cc(C3CC3)c3c(C(F)(F)F)c[nH]c3n2)c2c1OCO2)N1CCC(N2CCOCC2)CC1 [Example 49, (7-((4-cyclopropyl-3-(trifluoromethyl)-1H-pyrrolo[2,3-b]pyridin-6-yl)amino)benzo[d][1,3]dioxol-4-yl)(4-morpholinopiperidin-1-yl)methanone]"
,0.301 to 1 µM,0.301 to 1 µM,"O=C(c1ccc(Nc2cc(C3CC3)c3c(C(F)(F)F)c[nH]c3n2)c2c1CCO2)N1CCOCC1 [Example 91, (7-((4-cyclopropyl-3-(trifluoromethyl)-1H-pyrrolo[2,3-b]pyridin-6-yl)amino)-2,3-dihydrobenzofuran-4-yl)(morpholino) methanone]"
0.101 to 0.3 µM,0.101 to 0.3 µM,,"CCNc1cc(Nc2ccc(P3(=O)CCN(C4CCOCC4)CC3)cc2OC)nc2[nH]cc(C(F)(F)F)c12 [Example 94, 4-(4-((4-(ethylamino)-3-(trifluoromethyl)-1H-pyrrolo[2,3-b]pyridin-6-yl)amino)-3-methoxyphenyl)-1-(tetrahydro-2H-pyran-4-yl)-1,4-azaphosphinane 4-oxide]"
0.301 to 1 µM,< 0.1 µM,,"CCNc1cc(Nc2ccc(S(=O)(=O)N3CCC(N4CCOCC4)CC3)c3c2OCCO3)nc2[nH]cc(C(F)(F)F)c12 [Example 96, N^4-ethyl-N^6-(8-((4-morpholonopiperidin-1-yl)sulfonyl)-2,3-dihydrobenzo [b] [1,4]dioxin-5-yl)-3-(trifluoromethyl)-1H-pyrrolo[2,3-b]pyridine-4,6-diamine]"
0.101 to 0.3 µM,< 0.1 µM,,"CNc1cc(Nc2ccc(C(=O)N3CCC(N4CCOCC4)CC3)c3c2OCCO3)nc2[nH]cc(C(F)(F)F)c12 [Example 160, (8-((4-(methylamino)-3-(trifluoromethyl)-1H-pyrrolo[2,3-b]pyridin-6-yl)amino)-2,3-dihydrobenzo [b] [1,4]dioxin-5-yl)(4-morpholinopiperidin-1-yl)methanone]"
0.101 to 0.3 µM,< 0.1 µM,,"CCCNc1cc(Nc2ccc(C(=O)N3CCC(N4CCOCC4)CC3)c3c2OCCO3)nc2[nH]cc(C(F)(F)F)c12 [Example 162, (4-morpholinopiperidin-1-yl)(8-((4-(propylamino)-3-(trifluoromethyl)-1H-pyrrolo[2,3-b]pyridin-6-yl)amino)-2,3-dihydrobenzo[b] [1,4]dioxin-5-yl)methanone]"
,,< 0.1 µM,"CNc1cc(Nc2ccc(S(=O)(=O)N3CCC(N4CCOCC4)CC3)cc2OC)nc2[nH]cc(C(F)(F)F)c12 [Example 184, N^6-(2-methoxy-4-((4-morpholinopiperidin-1-yl)sulfonyl)phenyl)-N^4-methyl-3-(trifluoromethyl)-1H-pyrrolo[2,3-b]pyridine-4,6-diamine]"
< 0.1 µM,< 0.1 µM,,"COc1cc(S(=O)(=O)N2CCC(N3CCOCC3)CC2)ccc1Nc1cc(NCCS(C)(=O)=O)c2c(C(F)(F)F)c[nH]c2n1 [Example 194, N^6-(2-methoxy-4-((4-morpholinopiperidin-1-yl)sulfonyl)phenyl)-N^4-(2-(methylsulfonyl)ethyl)-3-(trifluoromethyl)-1H-pyrrolo[2,3-b]pyridine-4,6-diamine]"
0.301 to 1 µM,0.101 to 0.3 µM,,"CCNc1cc(Nc2ccc(P3(=O)CCN(C4CC4)CC3)cc2OC)nc2[nH]cc(C(F)(F)F)c12 [Example 206, 1-cyclopropyl-4-(4-((4-(ethylamino)-3-(trifluoromethyl)-1H-pyrrolo[2,3-b]pyridin-6-yl)amino)-3-methoxyphenyl)-1,4-azaphosphinane 4-oxide]"
,,0.101 to 0.3 µM,"O=C(c1ccc(Nc2cc(C3CC3)c3c(C(F)(F)F)c[nH]c3n2)c2c1CCO2)N1CC[C@H](N2CCOCC2)C1 [Example 237, (S)-(7-((4-cyclopropyl-3-(trifluoromethyl)-1H-pyrrolo[2,3-b]pyridin-6-yl)amino)-2,3-dihydrobenzofuran-4-yl)(3-morpholinopyrrolidin-1-yl)methanone]"
,,< 0.1 µM,"O=C(c1ccc(Nc2cc(C3CC3)c3c(C(F)(F)F)c[nH]c3n2)c2c1CCO2)N1CC[C@@H](N2CCOCC2)C1 [Example 238, (R)-(7-((4-cyclopropyl-3-(trifluoromethyl)-1H-pyrrolo[2,3-b]pyridin-6-yl)amino)-2,3-dihydrobenzofuran-4-yl)(3-morpholinopyrrolidin-1-yl)methanone]"
< 0.1 µM,< 0.1 µM,,"CNc1cc(Nc2ccc(S(=O)(=O)N3CCC(N4C[C@H]5C[C@@H]4CO5)CC3)cc2OC)nc2[nH]cc(C(F)(F)F)c12 [Example 243, N^6-(4-((4-((1R,4R)-2-oxa-5-azabicyclo[2.2.1]heptan-5-yl)piperidin-1-yl)sulfonyl)-2-methoxyphenyl)-N^4-methyl-3-(trifluoromethyl)-1H-pyrrolo[2,3-b]pyridine-4,6-diamine]"
< 0.1 µM,,< 0.1 µM,"CCNc1cc(Nc2ccc(C(=O)N3CCC(N4C[C@H]5C[C@@H]4CO5)CC3)c3c2OCC3)nc2[nH]cc(C(F)(F)F)c12 [Example 244, (4-((1R,4R)-2-oxa-5-azabicyclo[2.2.1]heptan-5-yl)piperidin-1-yl)(7-((4-(ethylamino)-3-(trifluoromethyl)-1H-pyrrolo[2,3-b]pyridin-6-yl)amino)-2,3-dihydrobenzofuran-4-yl)methanone]"
< 0.1 µM,,< 0.1 µM,"CCNc1cc(Nc2ccc(C(=O)N3CCN(C4COC4)CC3)c3c2OCC3)nc2[nH]cc(C(F)(F)F)c12 [Example 248, (7-((4-(ethylamino)-3-(trifluoromethyl)-1H-pyrrolo[2,3-b]pyridin-6-yl)amino)-2,3-dihydrobenzofuran-4-yl)(4-(oxetan-3-yl)piperazin-1-yl)methanone]"
0.301 to 1 µM,,0.301 to 1 µM,"CCNc1cc(Nc2cc(F)c(S(=O)(=O)N3CCC(N4CCOCC4)CC3)cc2OC)nc2[nH]cc(C(F)(F)F)c12 [Example 266, N^4-ethyl-N^6-(5-fluoro-2-methoxy-4-((4-morpholinopiperidin-1-yl)sulfonyl)phenyl)-3-(trifluoromethyl)-1H-pyrrolo[2,3-b]pyridine-4,6-diamine]"
